target: Parkin (Homo sapiens, UniProt O60260); test: Parkin pUB Auto-ubiquitinylation Assay (TR-FRET); assay type: biochemical; conditions: not given
Excerpt: A Parkin pUB Auto-ubiquitinylation Assay is used to evaluate a compound's potency to activate Parkin's ability to Auto-ubiquitinylate itself.
The principle of this assay is that the E3 Ligase Parkin catalyzes the transfer of Ubiquitin to target proteins, but also has the ability to auto-ubiquitinylate itself. The phospho-Ubiquition (pUb) added to the assay alters the Parkin to a state where small molecule activators can enable the Parkin to auto-ubiquitinylate though the E1-E2 cascade reaction. The use of a Eu cryptate Ubiquition and anti 6His-d2 that binds to the His tagged Parkin will give a signal when the Eu cryptate Ubiquition is auto-ubiquitinylate onto the Parkin which can be monitored by TR-FRET.
Similar to the Activity-based probe assay in Example 2, screening for activating compounds can be distinguished from the controls as follows: • 100% activation signal=pUb activated Parkin+40 nM control activator in DMSO. • 0% activation signal=pUb activated Parkin+DMSO only. • Parkin activators can be identified by an increase of the 0% activation signal TR-FRET signal. Materials: • Assay Plate: White 384 well plate (Corning 3572) • Enzyme 1: E1 (Ubiquitin-activating enzyme/UBE1 Boston Biochem E-305) • Enzyme 2: E2 (UBcH7/Ube2L3 Boston Biochem E2-640) • Enzyme 3: Parkin-His tagged 203 μM (10.5 mg/ml) • pUb: Phospho-Ubiquitin (S65) (Boston Biochem U-102) • Eu Cryptate Reagent: Ubiquitin Eu (CisBio 61UBIKLA) • DMSO: DMSO (Sigma-34869-2.5L) • Reaction Buffer: 50 mM HEPES, 50 mM NaCl, 1 mM MgCl2, 0.005% Tween 20, 0.1% PF-127 (Fisher Scientific 50-310-494), pH 8.5 • Detection Buffer: 50 mM HEPES, 50 mM NaCl, 800 mM KF, 5 mM EDTA, 0.005% Tween 20, 0.1% PF-127, pH 8.5 • Detection Reagent Z: 13.4 nM Anti-6His-d2 in detection buffer • d2 Reagent: Anti-6His-d2 (CisBio 61HISDLA)
Enzyme Reaction (15 min pre-incubation with Parkin, pUb and activator only) • Parkin: 196 nM • pUb: 196 nM • DMSO: 1% DMSO • E1: 5 nM • E2: 50 nM • Ubiquitin Eu: 8.8 nM • Reaction time: 120 minutes • Temperature: 22° C. • Total volume: 10 μl reaction
Take 10 μl of Enzyme Reaction above and add 10 μl detection Reagent Z under the following conditions:
Assay Procedure: • 1) Load assay plate wells with 4.9 μl 400.0 nM Parkin, 400 nM pUb in reaction buffer by use of Eppendorf 12-channel pipette. • 2) Deliver 0.1 μl 100× activator candidates in DMSO by use of Echo 555 compound dispenser. Highest 100× concentration=100 μm and then twofold dilutions. Add each compound and control in duplicate wells. • 3) Spin 1000 rpm, 2 minutes, at room temp. • 4) Incubate plate for 15 minutes at room temp. • 5) Add 5 μl 10 nM E1, 100 nM E2, 17.6 nM Ubiquitin Eu and 2 mM ATP in Reaction Buffer by use of Eppendorf 12-channel pipette. • 6) Spin 1000 rpm, 2 minutes, at room temp. • 7) Incubate plate for 120 minutes at room temp. • 8) Add 10 μl 13.4 nM anti his d2 in detection buffer by use of Eppendorf 12-channel pipette. • 9) Spin 1000 rpm, 2 minutes, at room temp. • 10) Incubate plate for 120 minutes at room temp. • 11) Read plates on Perkin Elmer Envision instrument with the following parameters: • LANCE dual laser protocol loaded into the Envision® software • Top Mirror: LANCE/DELFIA Duel/Bias (Bar code 446) • Emission Filter: APC 665 EM (Bar code 205) • 2nd Emission Filter: Europium 615 EM (Bar code 203) • Read 655 nm (channel 1) and 615 nm (channel 2) wavelengths on Envision®
Data Analysis: The Data can be read in CSV files. There are two tables in those CSV files, which are the values of 655 nm (channel 1) and 615 nm (channel 2) wavelengths respectively. The data is converted to an HTRF Ratio=(Channel 1/Channel 2)*10,000
The average of all the 0 uM controls (DMSO only)=BKGD (Background—0% activation). Subtract BKGD from each HTRF Ratio value=HTRF-BKGD. The average of all the […] control activator in DMSO controls=Max (100% activation). The following equation is then used to calculate % Activation for each well/candidate as follows: % Activation=(HTRF-BKGD/Max)*100. […]

Sequence of Parkin (O60260 whole entry, other chains not shown): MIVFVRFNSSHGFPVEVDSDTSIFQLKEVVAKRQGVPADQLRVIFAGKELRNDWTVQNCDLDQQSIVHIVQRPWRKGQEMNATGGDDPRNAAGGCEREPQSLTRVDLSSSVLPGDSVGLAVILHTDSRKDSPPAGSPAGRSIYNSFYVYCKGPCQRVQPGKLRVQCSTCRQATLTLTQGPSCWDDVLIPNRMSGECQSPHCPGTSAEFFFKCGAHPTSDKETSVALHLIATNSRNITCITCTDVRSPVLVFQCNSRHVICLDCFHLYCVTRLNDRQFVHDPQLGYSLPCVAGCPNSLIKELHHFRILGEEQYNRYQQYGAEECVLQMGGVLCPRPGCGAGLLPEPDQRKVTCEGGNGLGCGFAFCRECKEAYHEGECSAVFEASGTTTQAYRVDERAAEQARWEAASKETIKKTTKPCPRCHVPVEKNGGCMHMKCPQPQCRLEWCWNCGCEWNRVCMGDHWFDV

Parkin activity in an auto-ubiquitination assay	Structure (SMILES)
increases	O=C(Nc1nc(NC(=O)c2ccccc2)n(-c2ccccc2)n1)c1ccccc1 [Compound A, N,N′-(1-phenyl-1H-1,2,4-triazole-3,5-diyl)dibenzamide]
increases	O=C(/C=C/c1ccccc1)Nc1nc(NC(=O)c2ccccc2)nn1-c1ccccc1 [Compound C, N-(5-cinnamamido-1-phenyl-1H-1,2,4-triazol-3-yl)benzamide]

same assay, conditions: Parkin activation, pUb activated Parkin; read-out: Auto-ubiq EC50 (μM) [Example 3]

Structure (SMILES)	EC50
O=C(Nc1nc(Nc2cc(N3CCCC3)nc3ccccc23)n(-c2ccccc2)n1)c1ccccc1 [Compound A1]	> 40 µM
O=C(Nc1nc(NC(=O)c2cc3ccccc3s2)n(-c2ccccc2)n1)c1ccccc1 [Compound A2]	> 40 µM
O=C(Nc1nc(NC(=O)c2ccccc2)n(-c2ccccc2)n1)c1ccccc1 [Compound A, N,N′-(1-phenyl-1H-1,2,4-triazole-3,5-diyl)dibenzamide]	2.3 µM
O=C(Nc1nc(Nc2nc(N3CCCC3)c3ccccc3n2)n(-c2ccccc2)n1)c1ccccc1 [Compound B1]	> 40 µM
O=C(Nc1nc(NC(=O)c2ccc3ccccc3n2)n(-c2ccccc2)n1)c1ccccc1 [Compound B2]	> 40 µM
CC(=O)Nc1nc(NC(C)=O)n(-c2ccccc2)n1 [Compound B]	> 40 µM
O=C(Nc1nc(Nc2ncnc3ccccc23)n(-c2ccccc2)n1)c1cccs1 [Compound C1]	> 100 µM
Cc1ccccc1C(=O)Nc1nc(NC(=O)/C=C/c2ccccc2)n(-c2ccccc2)n1 [Compound C2]	> 40 µM
O=C(/C=C/c1ccccc1)Nc1nc(NC(=O)c2ccccc2)nn1-c1ccccc1 [Compound C, N-(5-cinnamamido-1-phenyl-1H-1,2,4-triazol-3-yl)benzamide]	> 40 µM
CN1CCC(C(=O)Nc2nc(Nc3ncnc4ccccc34)n(-c3ccccc3)n2)CC1 [Compound D1]	> 40 µM
O=C(Nc1nc(NC(=O)c2ccccc2)n(-c2ccc3ccccc3n2)n1)c1ccccc1 [Compound D2]	> 40 µM
O=C(Nc1nc(Nc2nc(O)nc3ccccc23)n(-c2ccccc2)n1)c1ccccc1 [Compound E1]	> 40 µM
O=C(Nc1nc(NC(=O)c2ccccc2)n(-c2ccc3c(c2)OCCO3)n1)c1ccccc1 [Compound E2]	> 40 µM
O=C(Nc1nc(NC(=O)c2ccccc2)n(-c2ccc(I)cc2)n1)c1ccccc1 [Compound E, N-[5-benzamido-1-(4-iodophenyl)-1,2,4-triazol-3-yl]benzamide]	> 40 µM
CCN(CC)c1cc(Nc2nc(NC(=O)c3ccccc3)nn2-c2ccccc2)ncn1 [Compound F1]	> 40 µM
COc1ccc(-n2nc(NC(=O)c3ccccc3)nc2NC(=O)c2ccccc2)cc1 [Compound F2]	> 40 µM
Cc1ccccc1C(=O)Nc1nc(NC(=O)c2ccccc2C)n(-c2ccccc2)n1 [Compound F, 2-methyl-N-[5-[(2-methylbenzoyl)amino]-1-phenyl-1,2,4-triazol-3-yl]benzamide]	> 40 µM
O=C(Nc1nc(Nc2cc(N3CCCC3)ncn2)n(-c2ccccc2)n1)c1ccccc1 [Compound G1]	> 40 µM
O=C(Nc1nc(NC(=O)c2cccs2)nn1-c1ccccc1)c1ccccc1 [Compound G2]	> 40 µM
O=C(Nc1nc(Nc2ccncn2)n(-c2ccccc2)n1)c1ccccc1 [Compound H1]	> 40 µM
Cc1ccccc1C(=O)Nc1nc(NC(=O)c2ccccc2)n(-c2ccccc2)n1 [Compound H]	> 40 µM
O=C(Nc1nc(Nc2ccnc3ccccc23)n(-c2ccccc2)n1)c1ccccc1 [Compound I1]	> 40 µM
O=C(Nc1nc(NC(=O)c2ccccc2)n(C2CCOCC2)n1)c1ccccc1 [Compound I2]	> 40 µM

More lines, now with the values ahead:

EC50	Structure (SMILES)
> 40 µM	Nc1nc(Nc2nc(NC(=O)c3ccccc3)nn2-c2ccccc2)c2ccccc2n1 [Compound J1]
> 40 µM	O=C(Nc1nc(NC(=O)c2ccccc2)n(-c2ccc3ncccc3c2)n1)c1ccccc1 [Compound J2]
> 40 µM	CC(C)C(=O)Nc1nc(Nc2ncnc3ccccc23)n(-c2ccccc2)n1 [Compound K1]
> 40 µM	Cc1ccccc1C(=O)Nc1nc(NC(=O)c2cccs2)nn1-c1ccccc1 [Compound K2]
> 40 µM	Cc1ccccc1C(=O)Nc1nc(NC(=O)c2ccccc2)nn1-c1ccccc1 [Compound K, N-(5-benzamido-2-phenyl-1,2,4-triazol-3-yl)-2-methyl-benzamide]
> 40 µM	C/C=C/C(=O)Nc1nc(Nc2ncnc3ccccc23)n(-c2ccccc2)n1 [Compound L1]
> 40 µM	C=CC(=O)Nc1nc(NC(=O)c2ccccc2)nn1-c1ccccc1 [Compound L2]
> 40 µM	O=C(Nc1nc(Nc2ncnc3ccccc23)n(-c2ccccc2)n1)c1ccccc1 [Compound L, N-[1-phenyl-5-(quinazolin-4-ylamino)-1,2,4-triazol-3-yl]benzamide]
> 40 µM	C=C(C)C(=O)Nc1nc(Nc2ncnc3ccccc23)n(-c2ccccc2)n1 [Compound M1]
> 40 µM	O=C(Nc1nc(NC(=O)c2nc3ccccc3s2)n(-c2ccccc2)n1)c1ccccc1 [Compound M2]
> 40 µM	Nc1nc(Nc2nc(NC(=O)c3ccccc3)nn2-c2ccccc2)nc2ccccc12 [Compound N1]
> 40 µM	O=C(Nc1nc(Nc2nc(O)c3ccccc3n2)n(-c2ccccc2)n1)c1ccccc1 [Compound O1]
> 40 µM	O=C(Nc1nc(NC(=O)c2ccccc2)n(-c2cccc3cccnc23)n1)c1ccccc1 [Compound O2]
> 40 µM	O=C(Nc1nc(NC(=O)c2ccccc2)n(-c2cccc3ncccc23)n1)c1ccccc1 [Compound P2]
> 40 µM	Cc1ccccc1C(=O)Nc1nc(-c2ccccn2)nn1-c1ccccc1 [Compound Q2]
> 40 µM	Cc1ccccc1C(=O)Nc1nc(Nc2ncnc3ccccc23)n(-c2ccccc2)n1 [Compound R2]
> 40 µM	Cc1ccccc1C(=O)Nc1nc(-c2ccncc2)nn1-c1ccccc1 [Compound S2]
> 40 µM	Cc1ccccc1C(=O)Nc1nc(-c2cccnc2)nn1-c1ccccc1 [Compound T2]
> 40 µM	O=C(/C=C/c1ccccc1)Nc1nc(NC(=O)c2ccccc2)nn1-c1ccccn1 [Compound U1]
> 40 µM	c1ccc(-n2nc(-c3ccccn3)nc2Nc2ncnc3ccccc23)cc1 [Compound U2]
> 40 µM	O=C(Nc1nc(NC(=O)c2cccc([N+](=O)[O-])c2)n(-c2ccccc2)n1)c1ccccc1 [Compound V1]
> 40 µM	Cc1ccccc1C(=O)Nc1nc(C2CCOCC2)nn1-c1ccccc1 [Compound V2]
> 40 µM	O=C(Nc1nc(NC(=O)c2ccco2)n(-c2ccccc2)n1)c1ccccc1 [Compound W1]
> 40 µM	Cc1ccccc1C(=O)Nc1nc(NC(=O)c2ccccc2C)n(C(C)C)n1 [Compound W2]
> 40 µM	O=C(Nc1nc(NC(=O)c2ccccc2)n(-c2ccc(-c3ccccc3)cc2)n1)c1ccccc1 [Compound X1]
> 40 µM	Cc1ccccc1C(=O)Nc1nc(NC(=O)c2ccccc2C)n(-c2ccccn2)n1 [Compound X2]
> 40 µM	O=C(Nc1nc(-c2ccccn2)nn1-c1ccccc1)c1ccccc1 [Compound Y1, N-(1-phenyl-3-(pyridin-2-yl)-1H-1,2,4-triazol-5-yl)benzamide]
> 40 µM	O=C(Nc1nc(NC(=O)c2ccccc2)n(-c2ccc(OC(F)(F)F)cc2)n1)c1ccccc1 [Compound Z1]
> 40 µM	O=C(Nc1nc(NC(=O)c2ccc(I)cc2)n(-c2ccccc2)n1)c1ccc(I)cc1 [D]

Source: US10308617B2, “Triazole benzamide derivatives and the compositions and methods of treatment regarding the same” (An2H Discovery Limited, priority 2016, dated 2019)
